Source: PMC8280721, “Structural and Functional Analysis of a Multimodular Hyperthermostable Xylanase-Glucuronoyl Esterase from Caldicellulosiruptor kristjansonii” (Biochemistry, 2021)

What was measured:
Assay type in all cases: binding
[1] = target: T1, CkGE15A (GE15A, glucuronoyl esterase domain of CkXyn10C-GE15A) (Caldicellulosiruptor acetigenus, UniProt E4S6E9); assay: DSF (Tycho NT.[…]); conditions: 10000 µM; 0.5 mg/mL protein, 50 mM MOPS pH 7.2; second inflection point; no-ligand control Ti2 81.3 ± 0.37 °C
T1 construct: gene Calkr_2245; isolated CE15 domain (entire GE domain Thr1341-Arg1685 seen in structure); E. coli BL21(DE3), pET28a-TEVc; full-length protein 2159 residues
T1 sequence (E4S6E9 entry or part of it): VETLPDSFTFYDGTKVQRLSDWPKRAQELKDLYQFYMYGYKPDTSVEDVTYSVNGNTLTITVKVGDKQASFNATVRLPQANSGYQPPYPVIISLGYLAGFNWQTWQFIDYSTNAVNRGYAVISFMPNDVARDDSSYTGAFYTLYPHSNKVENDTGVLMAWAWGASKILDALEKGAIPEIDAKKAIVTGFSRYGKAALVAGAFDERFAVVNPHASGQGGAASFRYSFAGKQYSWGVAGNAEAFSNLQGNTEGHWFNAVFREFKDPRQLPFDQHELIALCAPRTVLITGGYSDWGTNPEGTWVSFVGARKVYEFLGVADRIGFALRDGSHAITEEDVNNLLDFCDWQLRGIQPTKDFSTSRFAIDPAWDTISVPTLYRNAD

[2] = target: T2, CBM9.3 (CkCBM9.3, third CBM9 domain of CkXyn10C-GE15A) (Caldicellulosiruptor acetigenus, UniProt E4S6E9); assay: DSF (Tycho NT.[…]); conditions: 100000 µM; 0.5 mg/mL protein, 50 mM Tris pH 8, 100 mM NaCl; 100 mM ligand; no-ligand control Ti 61.0 ± 0.88 °C
T2 construct: gene Calkr_2245; isolated CBM9.3 domain (Lys1072-Leu1252) plus C-terminal linker Lys1253-Pro1265; N-terminal His6 tag and TEV site (not seen in density); E. coli BL21(DE3), pET28a-TEVc; full-length protein 2159 residues
T2 sequence (E4S6E9 entry or part of it): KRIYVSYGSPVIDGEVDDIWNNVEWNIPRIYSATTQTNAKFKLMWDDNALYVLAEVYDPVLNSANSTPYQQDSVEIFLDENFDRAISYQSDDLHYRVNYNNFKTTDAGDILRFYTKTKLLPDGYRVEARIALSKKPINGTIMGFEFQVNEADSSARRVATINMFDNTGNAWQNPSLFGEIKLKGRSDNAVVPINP

[3] = target: T2, CBM9.3 (CkCBM9.3, third CBM9 domain of CkXyn10C-GE15A); assay: X-ray crystallography (soak […], […] min); conditions: crystal at pH 4.2; aromatic clamp Tyr89/Trp191

Compound	Ti2 (°C) ± SD [1] [°C]	Ti (°C) ± SD [2] [°C]	X-ray crystallography (soak 500 mM, 5 min) [3]
aldopentauronic acid	79.2 ± 0.49	–	–
OC[C@H]1OC(O)[C@H](O)[C@@H](O)[C@@H]1O (stereo partly shown) [glucose]	–	66.7 ± 0.195	we obtained structures with bound glucose and cellobiose and also with cellotriose
O=C(OCc1ccccc1)[C@H]1OC(O)[C@H](O)[C@@H](O)[C@@H]1O (stereo partly shown) [benzylglucuronate]	79.3 ± 0.49	–	–
